Measured values from US12306171B2, “Method for detecting indicator of immune-related disease” (MANDOM CORPORATION, priority 2018, dated 2025).

Experiments:
[1] = tested on: primary cilium of immune cell (peripheral blood mononuclear cells from an asthmatic patient); assay: Formation rate of primary cilium in immune cell after culture in steroid-containing medium; assay type: cell-based, human; conditions: 10 μM steroid, 37° C., 24 hours; nonadherent cells from asthmatic patient PBMC; FIG. 11
Protocol: Using 10 mL of peripheral blood collected from an asthmatic patient and 15 mL of a human lymphocyte-separation medium (manufactured by GE Healthcare, trade name: Ficoll-Paque PLUS), peripheral blood mononuclear cells were separated from the peripheral blood, according to a density gradient centrifugation method. Some of the separated peripheral blood mononuclear cells were fixed with 4 v/v % PFA-containing PBS solution. The fixed cells were blocked and permeabilized by incubating the cells in a blocking/permeabilizing agent, to give a sample containing uncultured cells.
Some of the separated peripheral blood mononuclear cells were cultured in a steroid-containing medium (RPMI1640 medium containing 10 μM hydrocortisone or 10 μM dexamethasone, 0.1 v/v % DMSO and 10 v/v % FBS) at 37° C. for 24 hours. Then, nonadherent cells suspended in each medium were collected. Immediately after collection, each of the collected cells was fixed with 4 v/v % PFA-containing PBS solution. […]
Next, the total number of immune cells and the number of primary cilia in an immune cell were obtained by using observations of cells contained in each sample. Then, the formation rate of a primary cilium in an immune cell was calculated in accordance with the formula (Ic): [Formation rate of primary cilium in immune cell]=[(Number of primary cilia in immune cell)/(Total number of immune cells)]×100 (Ic). […]

[2] = tested on: adhesive cell in peripheral blood mononuclear cells collected from an asthmatic patient; assay: Morphology and adhesive cells of peripheral blood mononuclear cells from an asthmatic patient after culture in steroid-containing medium; assay type: cell-based, human; conditions: 10 μM steroid, 0.1 v/v % DMSO, 10 v/v % FBS RPMI1640, 37° C., 24 hours; asthmatic patient PBMC; FIG. 10
Protocol: Using 10 mL of peripheral blood collected from an asthmatic patient and 15 mL of a human lymphocyte-separation medium (manufactured by GE Healthcare, trade name: Ficoll-Paque PLUS), peripheral blood mononuclear cells were separated from the peripheral blood, according to a density gradient centrifugation method. Some of the separated peripheral blood mononuclear cells were cultured in a steroid-containing medium (RPMI1640 medium containing 10 μM hydrocortisone or 10 μM dexamethasone, 0.1 v/v % DMSO and 10 v/v % FBS) or a control medium (RPMI1640 medium containing 0.1 v/v % DMSO and 10 v/v % FBS) in a culture vessel at 37° C. for 24 hours. The morphology and state of the obtained cell were observed by an inverted phase contrast microscope (manufactured by Leica Microsystems, trade name: DM IL LED). […]

## C[C@]12CCC(=O)C=C1CC[C@@H]1[C@@H]2[C@@H](O)C[C@@]2(C)[C@H]1CC[C@]2(O)C(=O)CO [hydrocortisone]
[1]
  formation rate of a primary cilium of the immune cell in the nonadherent cell, versus control medium: significantly lower
[2]
  presence of adhesive cell after culture (morphology, phase contrast microscope): the adhesive cell disappears
